Measurements from ChEMBL document CHEMBL1132052, “Solid-phase synthesis of benzisothiazolones as serine protease inhibitors” (Bioorg Med Chem Lett, 1999).

Molecular target: Tryptase (Homo sapiens, UniProt Q9BZJ3+Q15661+Q9NRR2)
Test: Compound was tested for inhibition of human mast cell tryptase
Assay type: protein assay

| SMILES | IC50 [µM] |
| --- | --- |
| COc1ccc(CNC(=O)CCCC(=O)OCN2C(=O)c3ccccc3S2(=O)=O)cc1 | 0.43 |
| O=C(CCCC(=O)OCN1C(=O)c2ccccc2S1(=O)=O)NCc1ccc(Cl)c(Cl)c1 | 0.23 |
